Measurements as given in ChEMBL document CHEMBL1142467, “A novel monoacylglycerol lipase inhibitor with analgesic and anti-inflammatory activity” (Bioorg Med Chem Lett, 2008).
pKi: −log10 of the molar value. Calls of active or inactive are those of the source. The rule behind the calls is not given here.

Legend:
Rattus norvegicus [1] = test: Antiinflammatory activity against carrageenan-induced foot paw edema in rat at 0.01 mmol/kg, ip; format: functional
[2] = biological target: T1, Fatty-acid amide hydrolase 1 (Rattus norvegicus) (UniProt P97612); test: Inhibition of Sprague-Dawley rat FAAH at 100 uM
T1 sequence (whole entry): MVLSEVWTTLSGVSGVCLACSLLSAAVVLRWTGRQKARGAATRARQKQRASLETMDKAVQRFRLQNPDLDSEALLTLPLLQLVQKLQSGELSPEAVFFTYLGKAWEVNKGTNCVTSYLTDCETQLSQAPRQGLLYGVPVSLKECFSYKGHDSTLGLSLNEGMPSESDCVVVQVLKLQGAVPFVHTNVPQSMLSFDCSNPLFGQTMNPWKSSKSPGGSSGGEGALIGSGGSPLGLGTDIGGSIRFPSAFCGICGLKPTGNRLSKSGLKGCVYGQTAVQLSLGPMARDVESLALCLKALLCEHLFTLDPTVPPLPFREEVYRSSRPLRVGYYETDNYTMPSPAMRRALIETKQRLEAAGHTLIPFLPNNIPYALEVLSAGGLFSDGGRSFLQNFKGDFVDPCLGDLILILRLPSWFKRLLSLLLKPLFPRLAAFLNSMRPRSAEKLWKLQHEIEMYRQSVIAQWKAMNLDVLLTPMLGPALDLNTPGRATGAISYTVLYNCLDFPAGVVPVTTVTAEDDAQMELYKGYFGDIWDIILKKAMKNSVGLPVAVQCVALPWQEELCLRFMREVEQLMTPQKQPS

[3] = biological target: T2, Monoglyceride lipase (Rattus norvegicus) (UniProt Q8R431); test: Inhibition of Sprague-Dawley rat MGL at 100 uM
T2 sequence (whole entry): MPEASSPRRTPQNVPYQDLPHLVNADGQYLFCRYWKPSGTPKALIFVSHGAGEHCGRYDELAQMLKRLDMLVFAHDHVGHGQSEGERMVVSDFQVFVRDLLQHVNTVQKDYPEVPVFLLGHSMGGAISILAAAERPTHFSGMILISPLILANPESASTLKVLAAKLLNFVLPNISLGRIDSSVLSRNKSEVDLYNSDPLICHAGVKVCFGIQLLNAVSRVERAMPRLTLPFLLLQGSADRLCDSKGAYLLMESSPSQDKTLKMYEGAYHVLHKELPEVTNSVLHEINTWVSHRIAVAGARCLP

Monoglyceride lipase = biological target: T3, Monoglyceride lipase (Rattus norvegicus, UniProt Q8R431); test: Inhibition of Sprague-Dawley rat MGL
T3 sequence (Q8R431 whole entry): T2 sequence (whole entry)

Rattus norvegicus [4] = test: Analgesic activity in rat assessed as inhibition of acetic acid-induced writhing responses at 3.6 mg/kg, ip; format: functional, organism-based; set-up: dose 3.6 mg/kg
Rattus norvegicus [5] = test: Antiinflammatory activity against carrageenan-induced foot paw edema in rat; format: functional
Rattus norvegicus [6] = test: Analgesic activity in rat assessed as inhibition of acetic acid-induced writhing responses at 36 mg/kg, ip; format: functional, organism-based; set-up: dose 36 mg/kg

SMILES: COc1ccc2c(c1)c(CC(=O)O)c(C)n2C(=O)c1ccc(Cl)cc1 [INDOMETHACIN]
- inhibition in vivo at 10 µmol/kg (Rattus norvegicus [1]): 47%

SMILES: CCCCCCCCCCCCCC[C@@H](N)CO
- inhibition [2]: 31.3%
- inhibition [3]: 30%

SMILES: NC[C@@H](N)CCCCc1ccccc1
- inhibition [2]: 0%
- inhibition [3]: 0%

SMILES: CCCCCCCC/C=C\CCCCCC[C@H](N)CN
- inhibition [2]: 4.9%
- inhibition [3]: 49.9%
- pKi (Monoglyceride lipase): 4.66
- Activity (Rattus norvegicus [4]): Active
- ED50 (Rattus norvegicus [5]): 10 µmol/kg

SMILES: CCCCCCOc1ccc(CCCC[C@H](N)CN)cc1
- inhibition [2]: 30.9%
- inhibition [3]: 25.9%

SMILES: CCCCCCCCCCCCCCC(N)CN (stereo not given)
- inhibition [2]: 31.2%
- inhibition [3]: 30.3%
- pKi (Monoglyceride lipase): 4.23

SMILES: CCCCCCCC/C=C\CCCCCC[C@@H](N)C(N)=O
- inhibition [2]: 24%
- inhibition [3]: 0%

SMILES: CCCCCCCCCCCCCC[C@H](N)CO
- inhibition [2]: 33.6%
- inhibition [3]: 31.5%

SMILES: CCCCCCCCCCCCCCC(=O)C(=O)NCCO
- inhibition [2]: 23.8%
- inhibition [3]: 27.5%

SMILES: CCCCCCCC/C=C\CCCCCC[C@@H](N)CN
- inhibition [2]: 25.9%
- inhibition [3]: 42.2%
- pKi (Monoglyceride lipase): 4.41
- Activity (Rattus norvegicus [6]): Active
